Test results taken from patent US9211291B2, “Treatment regimen utilizing neratinib for breast cancer” (WYETH LLC, priority 2009, dated 2015).

Tests used:
[1] = system: erbB-1- and/or erbB 2-expressing carcinoma cell lines; details: read-out: cellular IC50, preclinical data; cited from earlier work
[2] = system: metastatic erbB-2 positive breast cancer; test: phase 2 trial of neratinib as a single agent in subjects with metastatic erbB-2 positive breast cancer; assay type: in vivo, human; details: for median progression-free survival (PFS) / overall response rate (ORR): independent radiology assessment, preliminary data
Source text: Neratinib as a single agent has been studied in a phase 2 trial in subjects with metastatic erbB-2 positive breast cancer.

[3] = Arm A: subjects with prior trastuzumab treatment
[4] = Arm B: subjects without prior exposure to trastuzumab

CCOc1cc2ncc(C#N)c(Nc3ccc(OCc4ccccn4)c(Cl)c3)c2cc1NC(=O)/C=C/CN(C)C [neratinib, (2E)-N-[4-[[3-chloro-4-[(pyridin-2-yl)methoxy]phenyl]amino]-3-cyano-7-ethoxyquinolin-6-yl]-4-(dimethylamino)but-2-enamide]
IC50 [1]: < 100 nM | median progression-free survival (PFS) [2, 3]: 23 weeks | overall response rate (ORR) [2, 3]: 26% | median progression-free survival (PFS) [2, 4]: 40 weeks | overall response rate (ORR) [2, 4]: 57% | main adverse event ([2]; generally well manageable with medication, treatment interruption, or dose modification): diarrhea | other common adverse events ([2]; human, in vivo): nausea, vomiting, fatigue, and anorexia
